# Measured values published in paper PMC10644720 (Frontiers in Pharmacology, 2023).
# Experiments:
# human washed platelets [1] = assay: Platelet ATP release assay (luciferin/luciferase); format: cell-based; conditions: for IC50: Homo sapiens, Platelet
# Procedure: Blood was collected from a median cubital vein using a 3.8% sodium citrate anticoagulation tube with a 1:9 dilution ratio. The platelets were washed using a previously described method with slight modification ([Babur et al., 2020]; [Uphaus et al., 2022]). The blood was centrifuged at room temperature at 300 × g for 10 min to separate platelet-rich plasma (PRP). PRP was added to 50 ng/mL of PGE1 and 5 mM EDTA, centrifuged at 2,000 × g for 2 min at room temperature, and the platelet precipitate was obtained after discarding the supernatant. The modified HEPES-Tyrode’s buffer (20 mM 4-(2-Hydroxyethyl)-1-piperazine ethane sulfonic acid [HEPES], pH 7.3, 129 mM NaCl, 2.9 mM KCl, 12 mM NaHCO3, 0.34 mM Na2HPO4, 20 mM HEPES, 5 mM D-Glucose, 1 mM MgCl2) was used to resuspend the platelets, added with 50 ng/mL PGE1 and 5 mM EDTA, and the platelets were washed by centrifugation at 2,000 ×g for 2 min at room temperature. The washed platelets (WP) were resuspended using modified HEPES-Tyrode’s buffer, and the platelet count was adjusted to 150–200 × 10^9/L.
# Platelet aggregation and ATP release were detected using the Chrono-Log platelet aggregation instrument (Chrono-Log Corp., Havertown, Pennsylvania, United States), as previously reported ([Babur et al., 2020]). […] In addition, 1 mM CaCl2 and different platelet activators (ADP, collagen, and thrombin; Chrono-Log Corp., Havertown, Pennsylvania, United States; U46619, from Sigma, St. Louis, MO, United States; convulxin, sc-202554 from Santa Cruz Biotechnology, Santa Cruz, CA, United States) were added to each group before the start of the aggregation assay. For the ATP release experiments, the platelets were incubated with 50 ng/mL luciferin and D-luciferase (Cat No. 395; Chrono-Log Corp.) for 2 min before the addition of activators. The platelet aggregation and ATP release curves were traced during experiments.
# rhGPVI = molecular target: T1, rhGPVI (Homo sapiens, UniProt Q9HCN6); assay: Solid phase binding assay (rhGPVI binding to immobilized collagen); conditions: rhGPVI 30 nM; collagen 5 μg/mL coated; read-out: IC50, inhibition of binding of rhGPVI to collagen
# T1 construct: rhGPVI was expressed and purified according to the method reported in the literature; made in house
# T1 sequence (Q9HCN6 21-203 limits assumed): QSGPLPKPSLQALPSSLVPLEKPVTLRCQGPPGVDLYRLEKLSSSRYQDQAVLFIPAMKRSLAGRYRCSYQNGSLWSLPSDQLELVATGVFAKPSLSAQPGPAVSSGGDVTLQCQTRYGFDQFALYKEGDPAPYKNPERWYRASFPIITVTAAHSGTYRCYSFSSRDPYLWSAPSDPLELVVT
# Procedure: rhGPVI was expressed and purified according to the method reported in the literature ([Horii et al., 2006]). rhGPVI was cross-linked with 10 μg/mL of cross-linking antibody His Tag Horseradish Peroxidase-conjugated Antibody (Cat. MAB050H; R&D Systems, Minneapolis, MN, United States). Solid phase assays were performed based on previously described procedures ([Billiald et al., 2023]). Collagen (5 μg/mL prepared in PBS) was used to coat 96-well plates overnight at 4°C. Non-specific sites were closed by Superblock (Cat. 37580; Thermo Fisher Scientific, Waltham, MA, United States). […] 1-StepTM Ultra TMB-ELISA (Cat. 34022; Thermo Fisher Scientific, Waltham, MA, United States) was developed, and the reaction was stopped with a 2 M sulphuric acid solution. Absorbance values were read at 450 nm. At least three washes were performed with PBS between each of the above steps. Each spot was measured three times.
# pulmonary thrombosis = assay: Collagen-epinephrine-induced acute pulmonary embolism model and plasma oxidative markers; format: in vivo, C57BL/6 mice; conditions: luteolin 35 μM/kg
# Procedure: The acute pulmonary embolism model in mice was similar to the previously reported literature with slight modifications ([Pan et al., 2021]). […] after a retro-orbital sinus injection of collagen (100 μg/kg)-epinephrine (300 μg/kg), the mice were anesthetized by pentobarbital (45 mg/kg, i.p.). Whole blood obtained from the eyes was anticoagulated with EDTA·2Na. Whole blood was centrifuged at 3,000 rpm for 10 min to get plasma. Measurement of MDA and SOD in plasma followed the manufacturer’s protocols. Mice were sacrificed by cervical dislocation. The lung tissue was taken and fixed in 4% paraformaldehyde overnight. Lung and sternum tissues were fixed in 4% paraformaldehyde, embedded in paraffin, and sectioned into 5-μm sections. After dewaxing and washing, the slices were incubated overnight at 4°C for immunostaining with anti-mouse CD41 antibody (Cat No. GTX113758, GeneTex Inc., Irvine, CA, United States) 0.63 μg/mL or with anti-mouse CD42b antibody (Cat No. 12860-1-AP; Proteintech Group Inc., Chicago, IL, United States) 1 μg/mL or an equivalent concentration of polyclonal non-immune IgG (Cat No. GTX213110-01; GeneTex) as control. The sections were washed three times and incubated for 50 min at room temperature with secondary antibodies. The nuclei were counterstained using hematoxylin. The tissues were observed using 3,3′-Diaminobenzidine tetrahydrochloride.
# human washed platelets [2] = assay: Platelet ROS release assay (DCFH-DA); format: cell-based; conditions: for IC50: Homo sapiens, Platelet; for effect on platelet ROS release: luteolin 25 μM, BAY61-3606 63 nM
# Procedure: The assay was performed as previously reported with minor modifications ([Arthur et al., 2012]; [Ye et al., 2020]). Briefly, WPs (500 × 10^9/L) were labeled with 5 μM Fluo-3AM (Cat No. IF0150; Solarbio) or 10 μM DCFH-DA (Cat No. D6883; Sigma, St. Louis, MO, United States) at 37°C for 30 min protected from light. […] In addition, 1 mM CaCl2 and collagen or convulxin were added to start the reaction. […] A ROS probe via a fluorescent enzyme marker was added. O2 ^− and H2O2 were measured using 2 μM Amplex Red (Cat No. ST010; Beyotime Institute of Biotechnology, Shanghai, China) or 2 μM Dihydroethidium (DHE, Cat No. S0063; Beyotime Institute of Biotechnology, Shanghai, China). O2 ^− and H2O2 were analyzed using a Fluoroskan Ascent fluorometer (Thermo Fisher, Waltham, Massachusetts, United States).
compound,measurement,setting,value
O=c1cc(-c2ccc(O)c(O)c2)oc2cc(O)cc(O)c12 [Luteolin],IC50,"human washed platelets [1]; read-out: IC50, inhibition of ATP release, convulxin-induced",2370 nM
same,IC50,"human washed platelets [1]; collagen-induced, read-out: IC50, inhibition of ATP release",2670 nM
same,effect on platelet ATP release,"human washed platelets [1]; convulxin- and collagen-induced, concentration-dependent",significantly inhibited
same,IC50,rhGPVI,5490 nM
same,area and size of thrombus formation in lungs,pulmonary thrombosis; 30 min before collagen-epinephrine,significantly attenuated
same,MDA levels in plasma,pulmonary thrombosis; mice with pulmonary embolism,significantly decreased
same,SOD activity in plasma,pulmonary thrombosis; mice with pulmonary embolism,increased
same,IC50,"human washed platelets [2]; read-out: IC50, inhibition of ROS release, convulxin (5 ng/mL)-induced",3510 nM
same,IC50,"human washed platelets [2]; collagen (10 μg/mL)-induced, read-out: IC50, inhibition of ROS release",2060 nM
same,effect on platelet ROS release,human washed platelets [2]; collagen (10 μg/mL)-induced,decreasing levels
same,effect on platelet ROS release,human washed platelets [2]; convulxin (5 ng/mL)-induced,decreased
